Reference: patent US12012408B2, “Purine compounds and method for the treatment of cancer” (THE ROYAL INSTITUTION FOR THE ADVANCEMENT OF …, priority 2018, dated 2024)

What was measured:
[1] = test system: breast cancer stem-like cells (BCSCs), ALDHhigh and CD24low/CD44high; assay: Anti-stemness activity in breast cancer stem-like cells; assay type: cell-based
Description: Breast cancer stem-like cells (BCSCs), heterogeneously subsisting as CD24low/CD44high and ALDHhigh subpopulations, are enriched in aggressive breast cancer subtypes and believed to be responsible for driving metastatic colonization. Despite evidence of a clinical association between BCSC and poor prognosis, effective therapeutic means to target this cell population is lacking. We identified SLLN-15 as a compound with selective anti-sternness activity across a panel of cell lines expressing ALDHhigh and CD24low/CD44high markers, including MDA-MB-231, SUM-149PT, BT-20, SKBR3, 4T1 and several anaplastic thyroid cell lines. […] In summary, our data foster that targeting regulatory networks driving sternness represent important therapeutic targets for treating metastatic breast disease.

[2] = biological target: Janus kinase 2 (JAK2) (Homo sapiens, UniProt O60674); assay: SelectScreen kinase profiling (Invitrogen), high-throughput screening against a panel of kinases; assay type: biochemical; conditions: 100 nM screening concentration
Protocol: (§1) FIG. S3A represents the SelectScreen kinase profiling (Invitrogen) results obtained against a panel of kinases for SLLN-15 at 100 nM.
(§2) To further evaluate cellular Aurora kinase inhibitory activity of SLLN-15, western blot analysis was carried out in both MDA-MB-231 and BT-20 cell lines. […] To gain further insight into the mechanism underlying the regulation of Aurora A and B by SLLN-15, we next examined whether Aurora A and B were degraded via the proteasome pathway.

[3] = biological target: T1, Aurora kinase A (Homo sapiens, UniProt O14965); assay: as above; assay type: biochemical; conditions: 100 nM screening concentration
T1 sequence (O14965 1-403): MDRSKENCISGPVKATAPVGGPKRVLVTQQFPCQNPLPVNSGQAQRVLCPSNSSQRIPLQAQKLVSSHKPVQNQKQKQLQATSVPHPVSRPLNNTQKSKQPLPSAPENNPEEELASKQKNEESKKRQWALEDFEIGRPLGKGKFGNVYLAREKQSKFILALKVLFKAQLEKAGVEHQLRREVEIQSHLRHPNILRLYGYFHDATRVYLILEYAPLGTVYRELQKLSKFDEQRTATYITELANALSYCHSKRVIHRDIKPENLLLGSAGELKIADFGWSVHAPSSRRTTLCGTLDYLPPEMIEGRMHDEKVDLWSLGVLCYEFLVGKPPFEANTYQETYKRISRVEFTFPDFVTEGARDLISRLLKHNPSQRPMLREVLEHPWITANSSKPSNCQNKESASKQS
Protocol: as §1, §2

Janus kinase 2 (JAK2), sequence (O60674 whole entry): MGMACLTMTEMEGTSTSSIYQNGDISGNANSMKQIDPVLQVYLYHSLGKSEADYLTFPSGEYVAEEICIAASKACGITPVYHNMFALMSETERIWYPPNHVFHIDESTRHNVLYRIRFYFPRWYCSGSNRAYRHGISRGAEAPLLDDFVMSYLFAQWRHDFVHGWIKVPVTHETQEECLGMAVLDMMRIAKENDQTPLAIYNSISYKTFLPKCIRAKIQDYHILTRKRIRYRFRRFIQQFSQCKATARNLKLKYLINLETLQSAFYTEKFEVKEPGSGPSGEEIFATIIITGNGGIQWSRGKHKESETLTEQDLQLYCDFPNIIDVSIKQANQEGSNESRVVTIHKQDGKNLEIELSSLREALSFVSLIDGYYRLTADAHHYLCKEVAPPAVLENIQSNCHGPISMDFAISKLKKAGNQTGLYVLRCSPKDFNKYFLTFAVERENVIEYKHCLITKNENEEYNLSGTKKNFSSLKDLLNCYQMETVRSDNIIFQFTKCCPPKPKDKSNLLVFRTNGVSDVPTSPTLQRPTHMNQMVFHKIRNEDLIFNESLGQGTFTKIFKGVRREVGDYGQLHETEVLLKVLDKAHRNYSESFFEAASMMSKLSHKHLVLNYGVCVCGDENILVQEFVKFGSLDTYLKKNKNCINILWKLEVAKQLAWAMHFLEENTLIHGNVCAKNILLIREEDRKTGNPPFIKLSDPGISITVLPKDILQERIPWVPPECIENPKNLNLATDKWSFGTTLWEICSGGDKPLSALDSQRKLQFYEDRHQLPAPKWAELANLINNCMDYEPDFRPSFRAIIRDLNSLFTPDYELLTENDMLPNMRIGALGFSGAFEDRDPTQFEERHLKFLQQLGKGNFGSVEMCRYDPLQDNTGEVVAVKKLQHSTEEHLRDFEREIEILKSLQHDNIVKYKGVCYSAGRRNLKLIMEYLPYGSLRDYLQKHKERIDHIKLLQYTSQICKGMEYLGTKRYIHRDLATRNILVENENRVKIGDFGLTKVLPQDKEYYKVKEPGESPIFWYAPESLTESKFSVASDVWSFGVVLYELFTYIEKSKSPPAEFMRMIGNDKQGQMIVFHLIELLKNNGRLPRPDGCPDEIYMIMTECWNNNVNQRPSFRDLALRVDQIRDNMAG

## c1nc2nc(Nc3ccc(N4CC[Se]CC4)cc3)nc(N[C@H]3CC[Se]C3)c2[nH]1 [SLLN-15]
[1]; FIGS. 8A and 8B
  centrosomes clustering: interferes with centrosomes clustering
[1]; MDA-MB-231, sorted BCSC subpopulation, concurrent inhibition of focal adhesion kinase signaling
  cell locomotion: induced loss of cell locomotion
[1]; SLLN-15-treated cells
  BCSC-marker expression, tumorspheres formation, STAT3 activation, mitotic spindle assembly: reduced BCSC-marker expression, tumorspheres formation, STAT3 activation and defective mitotic spindle assembly
[2]
  inhibition of Janus kinase 2 (JAK2): 85%
[3]
  inhibition of Aurora kinase A: 91%
